Here are results for 15 molecules from ChEMBL document CHEMBL3763139, “Design, synthesis and biological evaluation of novel donepezil-coumarin hybrids as multi-target agents for the treatment of Alzheimer's disease” (Bioorg Med Chem, 2016).

pIC50: −log10 of the molar value. Active and inactive are the calls of the source. The rule behind the calls is not given here.

A word on the pIC50: it is the negative decadic logarithm of the IC50, by convention in mol/L. The Papp is a coefficient for how fast a substance crosses the barrier.

In series [1] the target is Cholinesterase (Equus caballus, UniProt P81908).
Description: Inhibition of equine serum BuChE using S-butyrylthiocholine iodide as substrate preincubated for 6 mins followed by substrate addition measured up to 180 secs by spectrophotometric-based Ellman's method
Series [2] concerns the target Acetylcholinesterase (Electrophorus electricus, UniProt O42275).
Description: Inhibition of electric eel AChE using acetylthiocholine iodide as substrate preincubated for 6 mins followed by substrate addition measured up to 180 secs by spectrophotometric-based Ellman's method
Series [3] has as its target Cholinesterase (Homo sapiens, UniProt P06276).
Description: Inhibition of human serum BuChE using S-butyrylthiocholine iodide as substrate preincubated for 6 mins followed by substrate addition measured up to 180 secs by spectrophotometric-based Ellman's method
For another series, the species on record is Homo sapiens. The experiment in a line: Selectivity index, ratio of IC50 for human recombinant MAO-A to IC50 for human recombinant MAO-B.
In series [4] the target is T1, Amine oxidase [flavin-containing] A (Homo sapiens, UniProt P21397).
T1 sequence (P21397 whole entry): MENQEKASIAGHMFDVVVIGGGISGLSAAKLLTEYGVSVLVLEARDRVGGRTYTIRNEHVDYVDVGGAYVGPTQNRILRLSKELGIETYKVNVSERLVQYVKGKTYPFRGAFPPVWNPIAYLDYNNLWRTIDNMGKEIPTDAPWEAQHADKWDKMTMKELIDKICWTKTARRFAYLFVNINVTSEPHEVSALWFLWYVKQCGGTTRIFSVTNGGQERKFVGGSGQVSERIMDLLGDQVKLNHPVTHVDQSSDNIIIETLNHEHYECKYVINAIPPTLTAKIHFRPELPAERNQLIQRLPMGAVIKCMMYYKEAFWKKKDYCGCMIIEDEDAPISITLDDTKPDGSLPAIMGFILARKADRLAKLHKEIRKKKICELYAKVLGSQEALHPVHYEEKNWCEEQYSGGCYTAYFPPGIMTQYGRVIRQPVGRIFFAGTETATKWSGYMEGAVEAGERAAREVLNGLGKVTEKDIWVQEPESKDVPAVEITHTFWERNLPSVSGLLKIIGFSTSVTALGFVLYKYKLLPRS
The experiment in a line: Inhibition of human recombinant MAO-A using p-tyramine substrate at 100 uM after 15 mins by fluorimetric analysis. The note with it: 0.25 h.

Series [5] has as its target Acetylcholinesterase (Homo sapiens, UniProt P22303).
Description: Inhibition of human erythrocyte AChE using acetylthiocholine iodide as substrate preincubated for 6 mins followed by substrate addition measured up to 180 secs by spectrophotometric-based Ellman's method
In series [6] the target is T2, Amine oxidase [flavin-containing] B (Homo sapiens, UniProt P27338).
T2 sequence (P27338 whole entry): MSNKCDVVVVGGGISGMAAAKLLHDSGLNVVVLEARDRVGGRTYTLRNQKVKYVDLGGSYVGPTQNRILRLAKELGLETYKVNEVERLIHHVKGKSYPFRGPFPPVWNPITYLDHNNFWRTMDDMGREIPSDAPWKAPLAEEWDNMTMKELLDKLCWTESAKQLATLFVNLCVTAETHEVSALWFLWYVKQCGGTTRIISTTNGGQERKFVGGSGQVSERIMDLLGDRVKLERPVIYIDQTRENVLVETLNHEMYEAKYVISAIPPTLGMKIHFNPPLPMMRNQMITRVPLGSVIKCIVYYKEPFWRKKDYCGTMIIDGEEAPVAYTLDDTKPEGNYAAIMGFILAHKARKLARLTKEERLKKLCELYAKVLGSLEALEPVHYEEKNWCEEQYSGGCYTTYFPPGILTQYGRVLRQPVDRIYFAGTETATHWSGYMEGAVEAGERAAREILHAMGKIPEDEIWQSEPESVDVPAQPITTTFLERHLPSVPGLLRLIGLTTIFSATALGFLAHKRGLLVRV
Description: Inhibition of human recombinant MAO-B using p-tyramine substrate after 15 mins by fluorimetric analysis

Series [7] can be described thus: Hepatotoxicity against human HepG2 cells assessed as cell viability at 6.25 uM after 24 hrs by MTT assay. Format: toxicity, cell-based. The note with it: read-out: Activity. (In general: Tetrazolium assays rely on reduction of a dye to a coloured formazan, in cell work by metabolically active cells.)
In series [8] the target is Cholinesterase (Equus caballus) (UniProt P81908). The note with it: 0.44 to 1.74 uM.
Series [9] is described as follows: Hepatotoxicity against human HepG2 cells assessed as cell viability at 50 uM after 24 hrs by MTT assay. The note with it: read-out: Activity. Format: toxicity, cell-based.
A short description of series [10]: Cytotoxicity against human SH-SY5Y cells assessed as cell viability at 50 uM after 24 hrs by MTT assay. It is filed as cell-based. The note with it: read-out: Activity.
A short description of series [11]: Hepatotoxicity against human HepG2 cells assessed as cell viability at 12.5 uM after 24 hrs by MTT assay. It is filed as toxicity, cell-based. The note with it: read-out: Activity.
For series [12], the target named is T2, Amine oxidase [flavin-containing] B. In words: Competitive inhibition of human recombinant MAO-B using p-tyramine substrate at 1.5 to 6 uM after 15 mins by Lineweaver-Burk reciprocal plot analysis. The note with it: 0.25 h.
A short description of series [13]: Cytotoxicity against human SH-SY5Y cells assessed as cell viability at 5 uM after 24 hrs by MTT assay. The note with it: read-out: Activity. Format: cell-based.
The nature of series [14]: Cytotoxicity against human SH-SY5Y cells assessed as cell viability at 10 uM after 24 hrs by MTT assay. It is filed as cell-based. The note with it: read-out: Activity.
The nature of series [15]: Cytotoxicity against human SH-SY5Y cells assessed as cell viability at 25 uM after 24 hrs by MTT assay. It is filed as cell-based. The note with it: read-out: Activity.
For series [16], the target named is T2, Amine oxidase [flavin-containing] B. In words: Reversible inhibition of human recombinant MAO-B assessed as enzyme recovery using p-tyramine substrate at 100 times IC50 preincubated for 30 mins followed by 100 fold dilution by fluorimetric analysis relative to control. More on the design: scale not given: the % may be the effect or the level left.
The nature of series [17]: Cytotoxicity against human SH-SY5Y cells assessed as cell viability at 1 uM after 24 hrs by MTT assay. It is filed as cell-based. The note with it: read-out: Activity.
The next series in a line: in vitro. The note with it: PAMPA, pH 7.4. (In general: PAMPA measures passive passage across an artificial lipid membrane.)
The target in series [18] is Acetylcholinesterase (Electrophorus electricus) (UniProt O42275). In words: Mixed type inhibition of electric eel AChE using acetylthiocholine iodide as substrate at 0.44 to 1.74 uM preincubated for 6 mins followed by substrate addition measured up to 180 secs by Lineweaver-Burk reciprocal plot analysis.
A short description of series [19]: Hepatotoxicity against human HepG2 cells assessed as cell viability at 25 uM after 24 hrs by MTT assay. It is filed as toxicity, cell-based. The note with it: read-out: Activity.

Cholinesterase (Equus caballus, UniProt P81908), sequence (P81908 whole entry): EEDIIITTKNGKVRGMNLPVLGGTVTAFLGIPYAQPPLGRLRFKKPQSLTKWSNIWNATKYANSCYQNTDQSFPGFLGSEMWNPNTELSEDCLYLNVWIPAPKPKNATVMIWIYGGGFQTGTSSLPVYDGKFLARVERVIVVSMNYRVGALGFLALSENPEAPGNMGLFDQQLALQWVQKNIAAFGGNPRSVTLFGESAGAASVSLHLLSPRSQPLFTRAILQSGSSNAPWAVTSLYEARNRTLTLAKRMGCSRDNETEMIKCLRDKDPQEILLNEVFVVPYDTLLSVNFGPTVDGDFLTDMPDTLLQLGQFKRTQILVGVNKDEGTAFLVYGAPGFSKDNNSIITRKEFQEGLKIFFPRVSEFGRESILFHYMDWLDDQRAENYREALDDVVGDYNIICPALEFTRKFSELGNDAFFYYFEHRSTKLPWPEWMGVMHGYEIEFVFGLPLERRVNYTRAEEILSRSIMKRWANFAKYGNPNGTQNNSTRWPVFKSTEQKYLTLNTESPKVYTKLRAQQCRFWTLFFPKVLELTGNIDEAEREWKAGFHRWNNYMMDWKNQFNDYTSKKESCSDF
Acetylcholinesterase (Electrophorus electricus, UniProt O42275), sequence (O42275 whole entry): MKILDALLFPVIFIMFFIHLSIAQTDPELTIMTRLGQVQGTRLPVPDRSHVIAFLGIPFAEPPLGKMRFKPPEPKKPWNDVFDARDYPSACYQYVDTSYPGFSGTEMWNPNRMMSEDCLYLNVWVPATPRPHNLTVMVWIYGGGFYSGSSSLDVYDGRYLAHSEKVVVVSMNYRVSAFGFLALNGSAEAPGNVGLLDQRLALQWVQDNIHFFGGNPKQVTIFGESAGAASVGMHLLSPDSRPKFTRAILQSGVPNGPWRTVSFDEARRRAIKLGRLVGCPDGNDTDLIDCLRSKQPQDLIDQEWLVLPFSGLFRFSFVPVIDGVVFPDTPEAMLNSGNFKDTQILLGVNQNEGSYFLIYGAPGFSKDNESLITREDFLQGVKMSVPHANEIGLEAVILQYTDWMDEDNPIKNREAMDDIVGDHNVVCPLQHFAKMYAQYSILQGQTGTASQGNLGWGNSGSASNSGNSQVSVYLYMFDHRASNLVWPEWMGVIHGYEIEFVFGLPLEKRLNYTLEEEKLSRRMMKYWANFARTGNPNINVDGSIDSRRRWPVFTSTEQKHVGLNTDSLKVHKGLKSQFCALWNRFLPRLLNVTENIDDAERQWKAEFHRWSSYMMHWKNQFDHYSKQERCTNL
Cholinesterase (Homo sapiens, UniProt P06276), sequence (P06276 whole entry): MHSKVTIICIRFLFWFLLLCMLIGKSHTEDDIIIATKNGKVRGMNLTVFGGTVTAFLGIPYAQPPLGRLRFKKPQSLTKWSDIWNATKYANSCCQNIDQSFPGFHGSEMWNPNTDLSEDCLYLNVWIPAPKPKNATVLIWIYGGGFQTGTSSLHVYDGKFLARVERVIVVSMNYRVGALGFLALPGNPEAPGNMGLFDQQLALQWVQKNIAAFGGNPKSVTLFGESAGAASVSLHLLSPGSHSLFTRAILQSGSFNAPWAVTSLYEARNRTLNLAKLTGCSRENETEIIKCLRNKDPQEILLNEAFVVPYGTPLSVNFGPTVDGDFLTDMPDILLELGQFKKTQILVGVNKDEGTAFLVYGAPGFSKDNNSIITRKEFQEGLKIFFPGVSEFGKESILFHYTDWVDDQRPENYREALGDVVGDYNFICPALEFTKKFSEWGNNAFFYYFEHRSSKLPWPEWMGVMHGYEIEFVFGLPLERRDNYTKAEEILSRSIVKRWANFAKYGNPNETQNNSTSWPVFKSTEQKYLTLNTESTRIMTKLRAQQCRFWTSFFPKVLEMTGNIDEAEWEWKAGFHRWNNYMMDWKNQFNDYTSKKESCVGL
Acetylcholinesterase (Homo sapiens, UniProt P22303), sequence (P22303 whole entry): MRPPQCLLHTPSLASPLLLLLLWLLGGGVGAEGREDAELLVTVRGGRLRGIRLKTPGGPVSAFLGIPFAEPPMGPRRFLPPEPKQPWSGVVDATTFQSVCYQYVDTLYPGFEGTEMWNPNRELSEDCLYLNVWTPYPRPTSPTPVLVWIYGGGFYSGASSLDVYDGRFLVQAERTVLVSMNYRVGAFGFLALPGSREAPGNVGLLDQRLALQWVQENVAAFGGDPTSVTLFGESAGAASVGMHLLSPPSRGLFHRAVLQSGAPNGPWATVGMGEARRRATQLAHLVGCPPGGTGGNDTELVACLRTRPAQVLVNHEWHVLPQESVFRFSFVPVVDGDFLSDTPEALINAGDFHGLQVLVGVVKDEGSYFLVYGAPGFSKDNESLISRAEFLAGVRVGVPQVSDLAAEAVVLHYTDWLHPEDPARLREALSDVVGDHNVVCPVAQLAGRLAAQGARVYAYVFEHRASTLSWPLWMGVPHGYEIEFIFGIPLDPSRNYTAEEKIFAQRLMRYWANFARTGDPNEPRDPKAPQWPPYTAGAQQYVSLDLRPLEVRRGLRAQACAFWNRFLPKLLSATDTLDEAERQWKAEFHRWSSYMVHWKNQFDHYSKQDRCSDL
Cholinesterase (Equus caballus), sequence (P81908 whole entry): as the sequence (P81908 whole entry) above
Acetylcholinesterase (Electrophorus electricus), sequence (O42275 24-633 limits assumed): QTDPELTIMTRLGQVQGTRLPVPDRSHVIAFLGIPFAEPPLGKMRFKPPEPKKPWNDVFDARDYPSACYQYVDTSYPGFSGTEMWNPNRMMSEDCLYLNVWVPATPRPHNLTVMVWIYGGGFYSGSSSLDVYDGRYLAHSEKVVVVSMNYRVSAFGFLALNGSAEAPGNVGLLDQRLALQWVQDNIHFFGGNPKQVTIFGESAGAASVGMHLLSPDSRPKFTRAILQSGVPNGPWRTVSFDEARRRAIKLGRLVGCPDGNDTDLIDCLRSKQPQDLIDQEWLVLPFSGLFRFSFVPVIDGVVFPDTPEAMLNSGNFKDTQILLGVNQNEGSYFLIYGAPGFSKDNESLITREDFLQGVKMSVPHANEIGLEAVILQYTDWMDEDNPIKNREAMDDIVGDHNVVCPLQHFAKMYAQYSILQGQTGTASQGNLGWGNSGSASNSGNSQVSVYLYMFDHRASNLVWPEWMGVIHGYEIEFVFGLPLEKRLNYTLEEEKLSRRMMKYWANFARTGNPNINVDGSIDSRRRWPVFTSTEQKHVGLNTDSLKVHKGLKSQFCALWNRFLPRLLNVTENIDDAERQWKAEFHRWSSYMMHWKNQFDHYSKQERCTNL
Description for in vitro: Permeability of the compound at 25 ug/ml at pH 7.4 after 16 hrs by PAMPA

As to `O=c1cc(Cl)c2ccc(OCCNC3CCN(Cc4ccccc4)CC3)cc2o1`, the pIC50 on Cholinesterase [1] is 5.83; against Acetylcholinesterase [2], 5.82; at Cholinesterase [3], 5.53; on Acetylcholinesterase [5], 5.69; in [6], 4.47. For the same molecule, the Ratio IC50 in the series listed under Homo sapiens was over 2.95. Further, the “inhibition (INH)” value in series [4] is “Not Active”.
Turning to `O=c1ccc2ccc(OCCNC3CCN(Cc4ccccc4)CC3)cc2o1`, the figures for the pIC50 (against Cholinesterase [1]; against Acetylcholinesterase [2]; in [6]) were 5.27, 5.35 and 5.08, respectively. Also, in the series listed under Homo sapiens, the Ratio IC50 is over 11.9. Further, the “inhibition (INH)” value in series [4] is reported as “Not Active”.
Turning to `O=c1oc2cc(OCCNC3CCN(Cc4ccccc4)CC3)ccc2c2c1CCCC2`, the pIC50 is 6.03 on Cholinesterase [1]; 6.06 against Acetylcholinesterase [2]; 5.70 against Cholinesterase [3]; 5.86 at Acetylcholinesterase [5]; 5.58 in series [6]. Also, the viability at 24 h, 6.25 µM in series [7] worked out at 101%. Besides, the inhibition entry in series [8] and in series [18] was “Active” each time. The viability at 24 h, 50 µM in series [9] was 104%; in series [10], 92.6%. In addition, the viability at 24 h, 12.5 µM in series [11] was 101%. Besides, the “inhibition (INH)” value in series [12] is on record as “Active”; in series [4], “Not Active”. In addition, in series [13], the viability at 24 h, 5 µM worked out at 102%. Further, the Ratio IC50 in the series filed under Homo sapiens is over 38.2. The viability at 24 h, 10 µM in series [14] came out at 97.5%. Moreover, the viability at 24 h, 25 µM amounted to 94.6% in [15] and 105% in series [19]. For the same molecule, the Activity in series [16] was determined as 47%. In series [17], the viability at 24 h, 1 µM came to 99.6%. Also, the Papp at 16 h, 25 ug/ml in “in vitro” came out at 16.2 ×10⁻⁶ cm/s.
As to `Cc1cc(=O)oc2cc(CNC3CCN(Cc4ccccc4)CC3)ccc12`, the results for the pIC50 (against Cholinesterase [1]; at Acetylcholinesterase [2]; in series [6]) were 4.97, 5.14 and 5.71, respectively. The Ratio IC50 in the series filed under Homo sapiens was over 51.8. The “inhibition (INH)” value in [4] is recorded as “Not Active”.
For `Cc1cc(=O)oc2cc(OCCNC3CCN(Cc4ccccc4)CC3)ccc12` the same measures were 5.36, 5.25, 5.56, over 36.4 and “Not Active”.
The matching figures for `O=c1cc(-c2ccccc2)c2ccc(OCCNC3CCN(Cc4ccccc4)CC3)cc2o1`: 5.05, 5.02, 4.34, over 2.19 and “Not Active”.
Take `O=c1cc(C(F)(F)F)c2ccc(OCCNC3CCN(Cc4ccccc4)CC3)cc2o1`: the pIC50 was 4.99 at Cholinesterase [1], 5.04 on Acetylcholinesterase [2] and 4.55 in [6]. Moreover, the Ratio IC50 in the series filed under Homo sapiens is over 3.51. Moreover, the “inhibition (INH)” value in series [4] is listed as “Not Active”.
With `Cc1c(C)c2ccc(OCCNC3CCN(Cc4ccccc4)CC3)cc2oc1=O`, the pIC50 at Cholinesterase [1] is 5.78; against Acetylcholinesterase [2] it was 5.83; against Cholinesterase [3], 5.57; at Acetylcholinesterase [5], 5.77; in series [6], 4.63. Also, the Ratio IC50 in the series listed under Homo sapiens was over 4.27. Further, in [4], the “inhibition (INH)” value is “Not Active”.
In the case of `CCOc1cc(=O)oc2cc(OCCNC3CCN(Cc4ccccc4)CC3)ccc12`, the pIC50 against Cholinesterase [1] was 5.16; against Acetylcholinesterase [2], 5.20; in series [6], 4.50. In the series listed under Homo sapiens, the Ratio IC50 was over 3.13. In addition, the “inhibition (INH)” value in series [4] was “Not Active”.
Take `Cc1c(Cl)c(=O)oc2cc(OCCNC3CCN(Cc4ccccc4)CC3)ccc12`: the pIC50 was 5.85 at Cholinesterase [1]; 5.80 at Acetylcholinesterase [2]; 5.77 against Cholinesterase [3]; 5.74 against Acetylcholinesterase [5]; 4.83 in [6]. The Ratio IC50 in the series filed under Homo sapiens was over 6.8. The “inhibition (INH)” value in series [4] is recorded as “Not Active”.
As to `COc1cc(=O)oc2cc(OCCNC3CCN(Cc4ccccc4)CC3)ccc12`, the pIC50 is 5.25 on Cholinesterase [1], 5.20 at Acetylcholinesterase [2] and 4.47 in [6]. Further, the Ratio IC50 in the series filed under Homo sapiens was over 2.98. Moreover, in [4], the “inhibition (INH)” value is on record as “Not Active”.
For `O=c1ccc2ccc(OCCCNC3CCN(Cc4ccccc4)CC3)cc2o1` the same measures were 5.01, 4.93, 4.90, over 7.94 and “Not Active”.
For the molecule `Cc1cc(=O)oc2cc(CNCCC3CCN(Cc4ccccc4)CC3)ccc12`, the pIC50 was 6.02 on Cholinesterase [1]; 6.04 on Acetylcholinesterase [2]; 5.46 against Cholinesterase [3]; 7.17 against Acetylcholinesterase [5]; 4.39 in series [6]. Also, the Ratio IC50 in the series listed under Homo sapiens is over 2.47. In addition, the “inhibition (INH)” value in series [4] is given as “Not Active”.
As for `O=c1ccc2ccc(OCCNCCC3CCN(Cc4ccccc4)CC3)cc2o1`, the pIC50 was 5.01 on Cholinesterase [1], 5.05 against Acetylcholinesterase [2] and 4.52 in series [6]. In the series listed under Homo sapiens, the Ratio IC50 was over 3.29. Also, the “inhibition (INH)” value in [4] is “Not Active”.
On to `Cc1cc2ccc(OCCNC3CCN(Cc4ccccc4)CC3)cc2oc1=O`, for which the pIC50 at Cholinesterase [1] was 5.12; at Acetylcholinesterase [2] it was 5.22; in [6] it was 5.62. Also, the Ratio IC50 in the series listed under Homo sapiens is over 42. In addition, in series [4], the “inhibition (INH)” value is given as “Not Active”.
